Measured values from US8795738B2, “Use of arsenic for cancer therapy protection” (Board of Regents of the University of Texas System, priority 2009, dated 2014).
Entries after “also recorded” stand apart in the source; their conditions may differ. Where a name gives a salt, the structure may show the parent alone. Read-outs that look alike come from different tables or passages of the source. *1 amine or outer side, *2 acyl side, *3 side chain or, on linkers, in order; H or OH if unused. Where a SMILES comes first, the peptide text is derived from it. Bridges are numbered along the chain shown (N, C = ends). Roman numbers before positions name the chains, in order. [ ]: non-standard residue; d: D form. Actinocin(9to1) = Cc1c2oc3c(C)ccc(C(=O)[*:1])c3nc-2c(C(=O)[*:2])c(N)c1=O; NMeV = CN[C@H](C(=O)O)C(C)C; Sar = CNCC(=O)O

What was measured:
[1] = system: Human lung carcinoma cells A549; format: in vivo, mice
[2] = mouse, in vivo
[3] = system: Human colon carcinoma cells, SW-480; format: in vivo, mice
[4] = system: Human breast carcinoma cells, MDA-MB-231; format: in vivo, mice
[5] = mouse, in vivo; remark: listed apart in the source
[6] = cited from earlier work; for absorption: oral / gastrointestinal absorption; for peak concentration in plasma: usual clinical doses
[7] = cited from earlier work
[8] = physiological pH; cited from earlier work
[9] = cited from earlier work; remark: listed apart in the source
[10] = cited from earlier work; remark: listed apart in the source
[11] = set-up: species or system mice; details: mouse, in vivo
MCF10A cells = format: cell-based, human
p53 [12] = format: cell-based
p53 [13] = experiment: C57BL/6 WT and p53 R172P knock-in mice, protection by arsenic (body weight); format: in vivo; details: p53 mutant (R172P knock-in) mice, in contrast with wild type littermates
Protocol: Mutant p53 expressing mouse model was employed to test whether the observed protective effect of arsenic was mediated by p53 inactivation. Black C57BL/6 WT or p53 R172P knock in mice at age of 4-6 weeks old) were obtained from Dr. Lazona. Mice were housed under pathogen-free conditions and maintained on a 12 h light/12 h dark cycle, with food and water supplied ad libitum., mice were randomized into following groups; control; X-ray irradiation only; arsenite and X-ray irradiation. For arsenite pretreatment, mice were fed with water containing sodium arsenite (as 1.0 mg/L) for 3 days. Mice were then irradiated with 2Gy TBI daily for one week. Body weight was monitored throughout the period of the experiment. The numbers are means±SE from two independent experiments with total of 10 mice per group.

[14] = system: peripheral blood lymphocytes; set-up: species or system mice; details: mouse, in vivo
[15] = mouse, in vivo; remark: listed apart in the source
[16] = mouse, in vivo; remark: listed apart in the source
[17] = system: human adult foreskin keratinocytes; details: cited from earlier work
[18] = 5FU 30 mg/kg i.v. daily for one week

Compound: O=c1[nH]cc(F)c(=O)[nH]1 [5FU, Fluorouracil]
- tumor volume ([1]; 5FU 30 mg/kg intravenous daily for one week): marked tumor regression
- bone marrow cellularity [2]: Bone marrow cell exhaustion
- damage to the small intestine (crypt size and morphology) [2]: severe damages to the small intestine
- tumor volume [3, 18]: marked tumor regression
- tumor volume [4, 18]: marked tumor regression
- damage to small intestine and bone marrow cells [5]: severe damages to small intestine and bone marrow cells

Compound: Cc1c2oc3c(C)ccc(C(=O)N[C@@H]4C(=O)N[C@H](C(C)C)C(=O)N5CCC[C@H]5C(=O)N(C)CC(=O)N(C)[C@@H](C(C)C)C(=O)O[C@@H]4C)c3nc-2c(C(=O)N[C@@H]2C(=O)N[C@H](C(C)C)C(=O)N3CCC[C@H]3C(=O)N(C)CC(=O)N(C)[C@@H](C(C)C)C(=O)O[C@@H]2C)c(N)c1=O [Actinomycin D] (I: T[dV]P[Sar][NMeV] / II: T[dV]P[Sar][NMeV]; ester I:1-I:C, II:1-II:C; linker I:N-II:N via Actinocin(9to1))
- excreted into the urine ([6]; in vivo): 10%
- half-life ([6]; in vivo): about 36 hr
- part of the dose excreted intact into the bile ([6]; in vivo): Half
- passage of the blood-brain barrier ([6]; in vivo): does not pass the blood-brain barrier

Compound: CS(=O)(=O)OCCCCOS(C)(=O)=O [Busulfan, 1,4-butanediol dimethanesulfonate]
- adults obtaining hematologic remission ([7]; previously untreated chronic myelogenous leukemia): Approximately 90%

Compound: O=C(O)CCCc1ccc(N(CCCl)CCCl)cc1 [Chlorambucil, 4-(bis(2-chlorethyl)amino)benzenebutanoic acid]
- absorption [6]: rapidly and completely absorbed

Compound: N.N.[Cl][Pt][Cl] [Cisplatin]
- absorption [6]: not absorbed orally

Compound: COc1cccc2c1C(=O)c1c(O)c3c(c(O)c1C2=O)C[C@@](O)(C(C)=O)C[C@@H]3O[C@H]1C[C@H](N)[C@H](O)[C@H](C)O1 [Daunorubicin, 5,12-Naphthacenedione, (8S-cis)-8-acetyl-10-((3-amino-2,3,6-trideoxy-a-L-lyxo-hexanopyranosyl)oxy)-7,8,9,10-tetrahydro-6,8,11-trihydroxy-10-methoxy hydrochloride]
- elimination half-life ([6]; in vivo): about 19 hr
- secreted into the bile ([6]; in vivo): ~40%
- absorption [6]: poor

Compound: COc1cccc2c1C(=O)c1c(O)c3c(c(O)c1C2=O)C[C@@](O)(C(=O)CO)C[C@@H]3O[C@H]1C[C@H](N)[C@H](O)[C@H](C)O1 [Doxorubicin, 5,12-Naphthacenedione, (8s-cis)-10-((3-amino-2,3,6-trideoxy-a-L-lyxo-hexopyranosyl)oxy)-7,8,9,10-tetrahydro-6,8,11-trihydroxy-8-(hydroxyacetyl)-1-methoxy-hydrochloride]
- elimination half-life ([6]; in vivo): about 30 hr
- excreted into the urine ([6]; in vivo): a few
- absorption [6]: absorbed poorly

Compound: O=NN(CCCl)C(=O)NC1CCCCC1 [Lomustine, 1-(2-chloro-ethyl)-3-cyclohexyl-1nitrosourea]
- tissue levels ([6]; in vivo, iv): comparable to plasma levels
- part of radioactivity excreted as degradation products within 24 hours ([6]; in vivo, po): about half
- ionisation [8]: relatively unionized

Compound: N[C@@H](Cc1ccc(N(CCCl)CCCl)cc1)C(=O)O [Melphalan, 4-(bis(2-chloroethyl)amino)-L-phenylalanine]
- patients with a favorable response ([7]; multiple myeloma, oral administration): one third to one half

Compound: CO[C@@]12[C@H](COC(N)=O)C3=C(C(=O)C(C)=C(N)C3=O)N1C[C@@H]1N[C@@H]12 [Mitomycin]
- time required to reduce the serum concentration by 50% ([9]; 30 mg bolus injection): 17 min
- dose excreted unchanged in the urine ([9]; human, in vivo): Approximately 10%

Compound: CC[C@]1(O)C[C@@H]2CN(CCc3c([nH]c4ccccc34)[C@@](C(=O)OC)(c3cc4c(cc3OC)N(C)[C@H]3[C@@](O)(C(=O)OC)[C@H](OC(C)=O)[C@]5(CC)C=CCN6CC[C@]43[C@@H]65)C2)C1 [Vinblastine]
- half-life of disappearance from plasma after distribution, first ([6]; after intravenous injection): approximately 1 hours
- half-life of disappearance from plasma after distribution, second ([6]; after intravenous injection): ~20 h
- excreted into the urine ([6]; in vivo): Approximately 15%
- plasma protein binding ([6]; in vivo): bind to plasma proteins
- recovered in the feces after biliary excretion ([6]; in vivo): about 10%
- absorption [6]: Unpredictable absorption
- peak concentration in plasma [6]: approximately 0.4 mM

Compound: CC[C@]1(O)C[C@H]2CN(CCc3c([nH]c4ccccc34)[C@@](C(=O)OC)(c3cc4c(cc3OC)N(C=O)[C@H]3[C@@](O)(C(=O)OC)[C@H](OC(C)=O)[C@]5(CC)C=CCN6CC[C@]43[C@@H]65)C2)C1 [Vincristine]
- plasma protein binding ([6]; in vivo): bind to plasma proteins
- terminal half-life ([6]; multiphasic clearance from the plasma): about 24 hours
- absorption [6]: Unpredictable absorption
- peak concentration in plasma [6]: approximately 0.4 mM

Compound: COc1cccc2c1C(=O)c1c(O)c3c(c(O)c1C2=O)C[C@@](O)([C@H](C)O)C[C@@H]3O[C@H]1C[C@H](N)[C@H](O)[C@H](C)O1 [daunorubicinol]
- half-life ([6]; in vivo): about 27 hr

Compound: Bleomycin
- administered dose recovered in the urine as active bleomycin ([9]; human, in vivo): 60% to 70%
- plasma or serum terminal elimination half-life ([9]; patients with creatinine clearance <35 mL per minute, as creatinine clearance decreases): increases exponentially
- serum or plasma terminal elimination half-life ([9]; patients with creatinine clearance >35 mL per minute): approximately 115 minutes
- tissue concentrations ([10]; hematopoietic tissue / bone marrow): low concentrations
- tissue concentrations ([10]; skin, lungs, kidneys, peritoneum, lymphatics): high concentrations
- time to improvement ([7]; Hodgkin's Disease and testicular tumors): ≤ 2 weeks
- time to improvement ([7]; squamous cell cancers): ≤ 3 weeks

Compound: sodium arsenite [arsenic]
- duration of pretreatment adequate for optimal protection [11]: 3 days
- protection (body weight) [11]: a protection less than 3-day pretreatment; also recorded: no further increase of benefits
- reversibility of p53 inhibition (MCF10A cells): transient and can be completely reversed
- time after arsenic removal until radiation-induced p53 activation is almost completely recovered (MCF10A cells): 7 days
- time in arsenic-free media until radiation-induced p53 activation is detectable (MCF10A cells): 5 days
- effect of arsenic pretreatment on 5FU-induced tumor suppression ([1]; mouse, in vivo): little effect
- effect of arsenic pretreatment on irradiation-induced tumor suppression ([1]; mouse, in vivo): little effect
- growth of the implant tumors ([1]; mouse, in vivo): did not have any detectable effect
- 5FU-induced body weight loss after arsenic pretreatment [2]: almost completely prevented
- 5FU-induced decrease of bone marrow cellularity after arsenic pretreatment [2]: considerably alleviated
- 5FU-induced small intestine damage after arsenic pretreatment [2]: significantly ameliorated
- body weight [2]: little loss of body weight
- Hdm2 expression and p53 localisation (p53 [12]): upregulation of Hdm2 and accumulation of p53 in the cytoplasm
- p53 response to genotoxic stress (p53 [12]): impaired p53 activation and apoptosis
- protection against therapy-induced toxicity (p53 [13]): little protection
- day of complete return to untreated level of radiation-induced p53 accumulation and p21 expression [14]: 9 days
- day of partial recovery of radiation-induced p53 accumulation and p21 expression [14]: 7 days
- radiation-induced p53 accumulation and p21 expression [14]: suppressed
- reversibility of p53 suppression [14]: temporary and reversible
- 5FU-induced body weight loss after arsenic pretreatment [15]: almost completely prevented
- effect of arsenic pretreatment on 5FU-induced tumor suppression ([3]; mouse, in vivo): little effect
- growth of the implanted tumors ([3]; mouse, in vivo): did not have any detectable effect
- p53-dependent tissue damages induced by 5FU [16]: significantly blunted
- cell proliferation (with enhanced NF-κB and AP-1 activity) [17]: induced proliferation
- cell viability [17]: statistically significant decrease of cell viability
- effect of arsenic pretreatment on 5FU-induced tumor suppression ([4]; mouse, in vivo): little effect
- body weight [5]: little loss of body weight
- damage to small intestine and bone marrow cells after arsenic pretreatment [5]: significantly inhibited
- therapy-induced body weight loss after arsenic pretreatment [5]: effectively prevented
